Data taken from patent US20230138395A1, “PHARMACEUTICAL COMPOSITIONS OF A THERAPEUTIC POLYENE MACROLIDE AND METHODS OF THEIR USE” (priority 2020, published 2023).
Converted amounts (≈) assume the structure as drawn. “And” between values parts separate entries of the source, which are not always exact repeats. Equal values may be shown once.

Experiments:
[1] = test system: all Aspergillus strains tested; experiment: MFC determination, summary; type: cell-based
Penicillium strains [2] = experiment: MIC testing (CLSI M38-A2); type: cell-based, Penicillium spp.; settings: Penicillium
C. albicans SC5314 [3] = experiment: In vitro activity (MFC) against the infecting strain, Example 18; type: cell-based, Candida albicans; settings: Candida albicans, read-out: MFC
[4] = test system: individual Aspergillus spp. (Table 13, species not given); experiment: MFC determination, Table 13; type: cell-based; settings: Aspergillus sp. of Table 13
C. glabrata strains = experiment: MIC testing (CLSI M27-A3); type: cell-based; set-up: MIC: unit not given beside the values
[5] = test system: individual Aspergillus spp. (Table 15, species not named); experiment: MIC testing (CLSI M38-A2), Table 15; type: cell-based; settings: Aspergillus sp. of Table 15, caspofungin read as MEC
Cr. neoformans strains = experiment: MIC testing (CLSI M27-A3, YNB, 72 h); type: cell-based, Cryptococcus neoformans
Candida albicans [6] = experiment: MIC testing (CLSI M27-A3); type: cell-based; set-up: MIC: unit not given beside the values
all Candida strains = experiment: MIC testing (CLSI M27-A3), summary; type: cell-based
Fusarium strains [7] = experiment: MFC determination, Table 17; type: cell-based, Fusarium spp.; settings: Fusarium strains (Table 17)
[8] = test system: individual Aspergillus spp. (Table 14, species not named); experiment: MFC determination, Table 14; type: cell-based; settings: Aspergillus sp. of Table 14
[9] = test system: Fusarium strains (Table 18); experiment: MFC determination, Table 18; type: cell-based, Fusarium spp.
C. tropicalis = experiment: MFC determination; type: cell-based
[10] = test system: individual Aspergillus spp. (Table 12, species not named); experiment: MIC testing (CLSI M38-A2), Table 12; type: cell-based; settings: Aspergillus sp. of Table 12, caspofungin read as MEC
[11] = test system: individual Aspergillus spp. (Table 12, species not named); experiment: MFC determination, Table 12; type: cell-based; settings: Aspergillus sp. of Table 12
C. krusei strains [12] = experiment: MIC testing (CLSI M27-A3); type: cell-based
[13] = test system: individual Aspergillus spp. (Table 13, species not given); experiment: MIC testing (CLSI M38-A2), Table 13; type: cell-based; settings: Aspergillus sp. of Table 13, caspofungin read as MEC
Penicillium strains [14] = experiment: MFC determination; type: cell-based, Penicillium spp.
[15] = test system: individual Aspergillus spp. (Table 15, species not named); experiment: MFC determination, Table 15; type: cell-based; settings: Aspergillus sp. of Table 15
Candida albicans SC5314 = experiment: Disseminated candidiasis in immunocompromised murine model (BALB/c mice): tissue fungal burden; type: in vivo; settings: Experiment I; 6 mg/kg i.v., 7 days
[16] = test system: all Aspergillus strains tested; experiment: MIC testing (CLSI M38-A2), summary; type: cell-based; settings: caspofungin read as MEC
Fusarium strains [17] = experiment: MIC testing (CLSI M38-A2), Table 17; type: cell-based, Fusarium spp.; settings: Fusarium strains (Table 17)
C. albicans SC5314 [18] = experiment: In vitro activity (MIC) against the infecting strain, Example 18; type: cell-based, Candida albicans; settings: Candida albicans, read-out: MIC
C. krusei strains [19] = experiment: MFC determination; type: cell-based
Candida albicans [20] = experiment: MFC determination; type: cell-based
C. parapsilosis = experiment: MFC determination; type: cell-based
[21] = individual C. albicans strain with elevated MICs to non-polyene comparators (Table 22), listed as Flu
[22] = individual C. krusei strain with elevated MICs to non-polyene comparators (Table 22)

**Q.** `OC(Cn1cncn1)(Cn1cncn1)c1ccc(F)cc1F` [Fluconazole, fluconazole] was tested. Which MFC Range [1] did it give?
**A.** > 64 µg/mL

**Q.** What about the MFC50 ([1]; kills 50% of strains) of the same compound?
**A.** > 64 µg/mL

**Q.** What about the MFC90 ([1]; kills 90% of strains) of the same compound?
**A.** > 64 µg/mL

**Q.** What about the MIC50 (Penicillium strains [2]; inhibits 50% of strains) of the same compound?
**A.** > 64 µg/mL

**Q.** What about the MIC90 (Penicillium strains [2]; inhibits 90% of strains) of the same compound?
**A.** > 64 µg/mL

**Q.** And the MFC (C. albicans SC5314 [3])?
**A.** > 64 µg/mL

**Q.** What about the MFC Range [4] of the same compound?
**A.** 64 µg/mL (≈ 209 µM)

**Q.** What about the MFC50 ([4]; kills 50% of strains) of the same compound?
**A.** 64 µg/mL (≈ 209 µM)

**Q.** What about the MFC90 ([4]; kills 90% of strains) of the same compound?
**A.** 64 µg/mL (≈ 209 µM)

**Q.** What about the MIC50 (C. glabrata strains; C. glabrata, inhibits 50% of strains) of the same compound?
**A.** 8 µg/mL (≈ 26.1 µM)

**Q.** What about the MIC90 (C. glabrata strains; C. glabrata, inhibits 90% of strains) of the same compound?
**A.** > 64 µg/mL

**Q.** What about the MIC (C. glabrata strains; individual C. glabrata strain with elevated MICs to non-polyene comparators (Table 22), listed as Flu) of the same compound?
**A.** 32 and 2 and >64 (2×) and 8 and 64

**Q.** What about the MIC50 ([5]; inhibits 50% of strains) of the same compound?
**A.** 64 µg/mL (≈ 209 µM)

**Q.** And the MIC90 ([5]; inhibits 90% of strains)?
**A.** > 64 µg/mL

**Q.** And the “MIC Range” value (Cr. neoformans strains; Cr. neoformans strains, 72 h, in µg/mL)?
**A.** <0.06-16

**Q.** And the MIC50 (Cr. neoformans strains; Cr. neoformans, inhibits 50% of strains)?
**A.** 2 µg/mL (≈ 6.53 µM)

**Q.** And the MIC90 (Cr. neoformans strains; Cr. neoformans, inhibits 90% of strains)?
**A.** 8 µg/mL (≈ 26.1 µM)

**Q.** And the “MIC Range” value (Candida albicans [6]; Fluconazole-susceptible C. albicans n = 13, in µg/mL)?
**A.** 0.125-0.5

**Q.** What about the MIC50 (Candida albicans [6]; Fluconazole-susceptible C. albicans n = 13, inhibits 50% of strains) of the same compound?
**A.** 0.25 µg/mL (≈ 0.816 µM)

**Q.** And the MIC90 (Candida albicans [6]; Fluconazole-susceptible C. albicans n = 13, inhibits 90% of strains)?
**A.** 0.25 µg/mL (≈ 0.816 µM)

**Q.** And the MIC (Candida albicans [6]; [21])?
**A.** 32 (2×) and >32 (4×) and >64

**Q.** What about the MIC50 (all Candida strains; inhibits 50% of strains) of the same compound?
**A.** 0.5 µg/mL (≈ 1.63 µM)

**Q.** What about the MIC90 (all Candida strains; inhibits 90% of strains) of the same compound?
**A.** > 32 µg/mL

**Q.** And the “MFC Range” value (Fusarium strains [7]; in µg/mL)?
**A.** >64

**Q.** And the MFC50 (Fusarium strains [7]; kills 50% of strains)?
**A.** > 64 µg/mL

**Q.** And the MFC90 (Fusarium strains [7]; kills 90% of strains)?
**A.** > 64 µg/mL

**Q.** And the MFC Range [8]?
**A.** > 64 µg/mL

**Q.** And the MFC50 ([8]; kills 50% of strains)?
**A.** > 64 µg/mL

**Q.** And the MFC90 ([8]; kills 90% of strains)?
**A.** > 64 µg/mL

**Q.** What about the MFC Range [9] of the same compound?
**A.** > 32 µg/mL

**Q.** And the MFC50 ([9]; kills 50% of strains)?
**A.** > 32 µg/mL

**Q.** And the MFC90 ([9]; kills 90% of strains)?
**A.** > 32 µg/mL

**Q.** And the “MFC Range” value (C. tropicalis; C. tropicalis strains, in µg/mL)?
**A.** >64

**Q.** And the MFC50 (C. tropicalis; C. tropicalis, kills 50% of strains)?
**A.** > 64 µg/mL

**Q.** What about the MFC90 (C. tropicalis; C. tropicalis, kills 90% of strains) of the same compound?
**A.** > 64 µg/mL

**Q.** What about the MIC50 ([10]; inhibits 50% of strains) of the same compound?
**A.** > 64 µg/mL

**Q.** And the MIC90 ([10]; inhibits 90% of strains)?
**A.** > 64 µg/mL

**Q.** And the MFC Range [11]?
**A.** > 64 µg/mL

**Q.** What about the MFC50 ([11]; kills 50% of strains) of the same compound?
**A.** > 64 µg/mL

**Q.** And the MFC90 ([11]; kills 90% of strains)?
**A.** > 64 µg/mL

**Q.** What about the “MIC Range” value (C. krusei strains [12]; C. krusei strains, in µg/mL) of the same compound?
**A.** 2-32

**Q.** What about the MIC50 (C. krusei strains [12]; C. krusei, inhibits 50% of strains) of the same compound?
**A.** 16 µg/mL (≈ 52.2 µM)

**Q.** What about the MIC90 (C. krusei strains [12]; C. krusei, inhibits 90% of strains) of the same compound?
**A.** 32 µg/mL (≈ 104 µM)

**Q.** What about the MIC (C. krusei strains [12]; [22]) of the same compound?
**A.** 16 µg/mL (≈ 52.2 µM)

**Q.** What about the “MIC Range” value ([13]; in µg/mL) of the same compound?
**A.** 64

**Q.** And the MIC50 ([13]; inhibits 50% of strains)?
**A.** 64 µg/mL (≈ 209 µM)

**Q.** What about the MIC90 ([13]; inhibits 90% of strains) of the same compound?
**A.** 64 µg/mL (≈ 209 µM)

**Q.** And the MFC50 (Penicillium strains [14]; kills 50% of strains)?
**A.** > 64 µg/mL

**Q.** What about the MFC90 (Penicillium strains [14]; kills 90% of strains) of the same compound?
**A.** > 64 µg/mL

**Q.** What about the MFC Range [15] of the same compound?
**A.** > 64 µg/mL

**Q.** And the MFC50 ([15]; kills 50% of strains)?
**A.** > 64 µg/mL

**Q.** What about the MFC90 ([15]; kills 90% of strains) of the same compound?
**A.** > 64 µg/mL

**Q.** And the “Brain tissue fungal burden, Mean log CFUs ± the standard deviation” value (Candida albicans SC5314)?
**A.** 1.28 ± 1.95 log CFUs

**Q.** What about the “Kidney tissue fungal burden, Mean log CFUs ± the standard deviation” value (Candida albicans SC5314) of the same compound?
**A.** 3.87 ± 1.53 log CFUs

**Q.** And the MIC50 ([16]; inhibits 50% of strains)?
**A.** > 64 µg/mL

**Q.** What about the MIC90 ([16]; inhibits 90% of strains) of the same compound?
**A.** > 64 µg/mL

**Q.** What about the MIC50 (Fusarium strains [17]; inhibits 50% of strains) of the same compound?
**A.** > 64 µg/mL

**Q.** What about the MIC90 (Fusarium strains [17]; inhibits 90% of strains) of the same compound?
**A.** > 64 µg/mL

**Q.** And the MIC (C. albicans SC5314 [18])?
**A.** 0.25 µg/mL (≈ 0.816 µM)

**Q.** What about the “MFC Range” value (C. krusei strains [19]; C. krusei strains, in µg/mL) of the same compound?
**A.** >64

**Q.** And the MFC50 (C. krusei strains [19]; C. krusei, kills 50% of strains)?
**A.** > 64 µg/mL

**Q.** What about the MFC90 (C. krusei strains [19]; C. krusei, kills 90% of strains) of the same compound?
**A.** > 64 µg/mL

**Q.** And the MFC (C. krusei strains [19]; [22])?
**A.** > 64 µg/mL

**Q.** And the “MFC Range” value (Candida albicans [20]; Fluconazole-resistant C. albicans n = 7, in µg/mL)?
**A.** >32

**Q.** What about the MFC50 (Candida albicans [20]; Fluconazole-susceptible C. albicans n = 13, kills 50% of strains) of the same compound?
**A.** > 32 µg/mL

**Q.** And the MFC90 (Candida albicans [20]; Fluconazole-susceptible C. albicans n = 13, kills 90% of strains)?
**A.** > 32 µg/mL

**Q.** What about the MFC (Candida albicans [20]; [21]) of the same compound?
**A.** >32 (6×) and >64

**Q.** What about the “MFC Range” value (C. parapsilosis; C. parapsilosis strains, in µg/mL) of the same compound?
**A.** >64

**Q.** What about the MFC50 (C. parapsilosis; C. parapsilosis, kills 50% of strains) of the same compound?
**A.** > 64 µg/mL

**Q.** What about the MFC90 (C. parapsilosis; C. parapsilosis, kills 90% of strains) of the same compound?
**A.** > 64 µg/mL

**Q.** And the MFC (C. parapsilosis; individual C. parapsilosis strain with elevated MICs to non-polyene comparators (Table 22), in µg/mL)?
**A.** >64
